Earlier results on one substance are cited in patent US4127524A, “Novel dodecapeptides, intermediates therefor, and compositions and methods employing said dodecapeptides” (priority 1977, dated 1978).

Data set [1] has as its system partially purified brain opiate receptor sites.
Another data set has as its system rat. Conditions: injected directly into the brain of the rat.

“H-Tyr-Gly-Gly-Phe-Met-OH [methionine enkephalin]”: the “binding to partially purified brain opiate receptor sites” value in data set [1] is “binds stereo-specifically”. The analgesic activity result with rat is “only weak analgesic agent of short duration”.
